According to patent publication US4235962A, “Combination kit for transaminase assay of a body fluid” (The Dow Chemical Company, priority 1978, dated 1980):

Experiments:
AST = AST (Sus scrofa, UniProt P00503); conditions: cited from earlier work
[1] = biological target: T1, ALT (alanine 2-oxoglutarate aminotransferase) (Homo sapiens, UniProt P24298)
T1 sequence (P24298 2-496 limits assumed): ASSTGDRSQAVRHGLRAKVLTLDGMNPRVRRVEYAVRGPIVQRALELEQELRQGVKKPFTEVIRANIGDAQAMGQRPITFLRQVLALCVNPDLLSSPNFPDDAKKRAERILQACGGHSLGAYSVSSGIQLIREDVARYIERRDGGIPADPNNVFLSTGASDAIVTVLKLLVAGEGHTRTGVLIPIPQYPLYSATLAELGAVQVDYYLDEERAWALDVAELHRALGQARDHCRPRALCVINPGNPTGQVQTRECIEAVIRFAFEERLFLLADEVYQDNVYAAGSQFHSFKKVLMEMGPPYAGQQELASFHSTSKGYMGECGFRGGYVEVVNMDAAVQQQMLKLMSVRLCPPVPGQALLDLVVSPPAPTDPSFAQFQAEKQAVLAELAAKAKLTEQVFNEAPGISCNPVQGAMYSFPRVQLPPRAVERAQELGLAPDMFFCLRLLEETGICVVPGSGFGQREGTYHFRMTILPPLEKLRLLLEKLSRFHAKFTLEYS
Source text: For precise measurement of a bimolecular reaction of the type under discussion, the rate of a reaction, at a given "B" concentration should be independent of A's concentration (i.e. at or near apparent Vmax with respect to A). However, for situations where A's concentrations are very low (i.e. endogenous serum contributions of amino acids in a side reaction situation) it becomes important to be able to access the extent of measurement of the apparent maximum velocity of said "contaminant reaction." This being the case of a combination AST/ALT test where one is concerned with the measurement of AST in an ALT test or vice versa, a mathematical outline is in order. Both side reactions are quantitatively discussed below.
ALT, likewise having a "ping pong" mechanism of catalysis, can kinetically be described identically: [formula] […] (KB /B+1 is again <<KA /A.
Therefore the [formula] […] Therefore the % V1 apparent as measured [formula]

AST, sequence (P00503 2-413 limits assumed): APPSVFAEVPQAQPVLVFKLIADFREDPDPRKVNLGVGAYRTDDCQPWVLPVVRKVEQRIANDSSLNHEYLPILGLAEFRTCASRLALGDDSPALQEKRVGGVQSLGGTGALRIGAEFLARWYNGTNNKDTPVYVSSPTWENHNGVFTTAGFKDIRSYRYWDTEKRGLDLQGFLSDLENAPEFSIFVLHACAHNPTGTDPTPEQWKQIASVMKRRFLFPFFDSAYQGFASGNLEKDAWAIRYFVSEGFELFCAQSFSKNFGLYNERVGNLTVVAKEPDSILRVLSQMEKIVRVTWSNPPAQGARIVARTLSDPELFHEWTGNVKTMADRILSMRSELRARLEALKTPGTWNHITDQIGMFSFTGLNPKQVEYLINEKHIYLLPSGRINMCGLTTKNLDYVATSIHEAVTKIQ

**Q.** With `O=C(O)CCC(=O)C(=O)O` [2-oxoglutarate, 2-Oxoglutarate] as the compound, how does the Km (AST; read-out: KB, B = 2-oxoglutarate) read?
**A.** 100 µM

**Q.** With `C[C@H](N)C(=O)O` [alanine, L-alanine] as the compound, how does the “Theoretical turnover of ALT” value [1] read?
**A.** 1.32 % Vmax

**Q.** Which KA (AST; A = aspartate) does the source give for `N[C@@H](CC(=O)O)C(=O)O` [aspartate, L-aspartate] here?
**A.** 0.90 mM
